Patent publication US7288527B2, “Inhibition of allergic contact dermatitis by N-L-alpha-aspartyl-L-phenylalanine 1-methyl ester” (priority 2004, dated 2007)
Residues, ends and D or L forms follow the SMILES beside them.

Columns and labels:
[1] = test system: human skin exposed to urushiol (poison sumac, poison ivy); assay: Treatment and prevention of urushiol-induced dermatitis on human skin (Example 3, Patient 1); type: in vivo; settings: topical lotion with 0.5 to 1 mg APM/ml, two to three times per day, also two packets Equal by mouth
Description: The goats frequently consumed and were in contact with both poison sumac and poison ivy abundant in their enclosure without experiencing symptoms.
A topical APM preparation was made by mixing 2 to 3 packets of Equal® brand sweetner (80-120 mg of APM) with approximately 170 ml (5.5 fluid ounces) of lotion containing Vaseline® Intensive Care® Water Resistant Moisturizing Lotion (Unilever United States, Inc.), resulting in a lotion with 0.5 to 1 mg APM/ml. Patient 1 had previously used the lotion base without effect. Patient 1 also took two packets of Equal® brand sweetener by mouth in response to a symptom of diarrhea, a condition known to be associated with urishiol.
A soap and water scrub of the affected area was done one hour after application of the cream, and the affected area allowed to air dry.
Additional affected areas were then discovered on Patient 1, and a lotion was prepared for Patient 1 to use on these areas as well as unaffected areas that could come in contact with poison ivy during their work. Patient 1 used additional topical APM preparation approximately two to three times per day.

[2] = test system: human rash secondary to urushiol exposure; assay: Treatment of rash caused by urushiol (Example 4); type: in vivo
Description: A human rash, with itching, in progress secondary to contact with an animal known to have had significant exposure to urushiol substances was arrested in 8 hours with 2 applications of aspartame in a Vaseline Intensive Care Lotion base (about 1.2 to 10 mg/ml). The itching ceased, and discomfort and irritation resolved within 8 hours.

[3] = test system: skin previously exposed to urushiol; assay: Treatment of allergic contact dermatitis with APM in a cream base (Example 1); type: in vivo; settings: thin film of APM in a cream base; after sixty (60) minutes
Source text: To an area of skin previously exposed to urushiol is applied a thin film of APM in a cream base. […] Further treatment may include washing the affected area to remove and displace urushiol dissolved in the applied lotion and followed by reapplication of APM containing cream or lotion.

[4] = test system: skin which may be exposed to urushiol; assay: Prevention of urushiol-induced dermatitis on human skin (Example 2); type: in vivo; settings: thin film of APM suspended in a petroleum cream base applied before exposure
Source text: To an area of skin which may be exposed to urushiol is applied a thin film of APM suspended in a petroleum cream base.

[5] = test system: capsaicin taste receptor (tongue); assay: Oral application of APM with capsaicin-containing red pepper sauce; type: in vivo
Source text: The variability in observable results in preventing dermatitis or topical irritation appear related to the amount of APM that is applied, the time and order of the therapeutic application, and the presence of receptors to which either the irritant oil or APM may bind.

[6] = test system: capsaicin burning sensation on the tongue; assay: Treatment of capsaicin irritation of the tongue (Example 6); type: in vivo, human; settings: dry powder, at least about 10 mg APM per 250 microliters of saliva
Description: A person eating spicy food seasoned with peppers is exposed to capsaicin, an irritant oil related to urushiol, causing an uncomfortable burning sensation on the tongue. APM or a derivative thereof is applied to the affected area as a dry powder in the amount of at least about 10 mg APM per 250 microliters of saliva, resulting in relief. Preferably, about 35 to about 80 mg of APM is applied to the area affected.

[7] = test system: capsaicin burning of the eye; assay: Alleviation of capsaicin burning of the eye (Example 7); type: in vivo, human; settings: about 10 mg per 250 microliters in sterile saline applied to the affected eye
Description: A kitchen worker is exposed to capsaicin oil from peppers during cooking preparation, the oil is transferred to their hands and then, by their hands, to their eyes, resulting in a burning sensation and pain. […] The application may be repeated in 15 min because tearing may dilute or wash away the active ingredients.

[8] = test system: capsaicin burning and pain of mucosa, eyes or nose; assay: APM against inadvertent mucosal contact with capsaicin cream (Example 8); type: in vivo, human; settings: preparation comprising 38 mg of APM per 5 ml applied to the affected area
Description: A patient is treated for arthritis with a capsaicin cream applied twice daily to the affected joint. Capsaicin is absorbed by the transdermal tissue and then transported to joint area. After an appropriate interval, for instance 2-5 days, significant reduction in swelling, heat, redness, and pain is observed. However, the patient also inadvertently contacts his or her urethra, periurethra tissues, vaginal mucosa, rectal mucosa, eyes, or nose with the capsaicin cream, resulting in a sensation of burning and pain in the affected area.

[9] = cited from earlier work

## COC(=O)[C@H](Cc1ccccc1)NC(=O)[C@@H](N)CC(=O)O [APM, N-L-alpha-aspartyl-L-phenylalanine 1-methyl ester] (H-Asp-Phe-OMe)
[1]
  rash or reaction observed on the day after application: no rash or reaction had occurred
[2]; 2 applications of aspartame in Vaseline Intensive Care Lotion base (about 1.2 to 10 mg/ml)
  time to arrest of rash with itching: 8 h
[2]; 2 applications, lotion base about 1.2 to 10 mg/ml
  time until itching ceased and discomfort and irritation resolved: ≤ 8 h
[2]; overnight after 2 applications, lotion base about 1.2 to 10 mg/ml
  state of rash overnight: the rash was gone
[3]
  symptoms of allergic contact dermatitis: significantly reduced
[4]
  symptoms of allergic contact dermatitis (prophylactic use): either do not appear or are significantly reduced
[5]; long duration of exposure to capsaicin leading to secondary effects
  APM response after long exposure to capsaicin: not as strong nor as quick
[5]; oral application of APM before red pepper sauce
  recognition of spicyness of red pepper sauce: absence of recognition of the spicyness
[5]; red pepper sauce applied to the tongue first, APM applied after
  effect on developed sensations of heat and irritation: displacement by APM of capsaicin from the taste receptor is manifested and recognized quickly
[6]
  burning sensation on the tongue: relief
[7]
  burning sensation of the eye: the burning sensation is alleviated
[8]
  burning and pain in the affected area: reducing or eliminating the burning and pain
[9]; pH 2.2
  maximum solubility in water: 20 mg/mL
[9]; pH 5.2
  minimum solubility in water: 13.5 mg/mL
